# In US20070128217A1 (priority 2003, published 2007):
# How the values were obtained:
# [1] = tested on: control sera (pooled serum of ten healthy LUMC hospital workers; commercial negative donor pooled serum from the Dutch bloodbank); format: binding, human; design: Binding of Control serum LUMC to linear peptides / Binding of Control serum Blood-bank to linear peptides / Binding of Control serum LUMC to looped peptides / Binding of Control Serum Blood-Bank to Looped peptides / Binding of Control serum LUMC to linear peptides of the protein M of SARS-CoV Urbani / Binding of Control serum Blood-bank to linear peptides of the protein M of SARS-CoV Urbani / Binding of Control serum LUMC to looped peptides of the protein M of SARS-CoV Urbani / Binding of Control Serum Blood-Bank to Looped peptides of the protein M of SARS-CoV Urbani: unit not given here
# [2] = tested on: antibodies in sera from SARS patients (sera 1a, 1b, 2, 6, 37, 62, London, SARS-yellow, SARS-green); format: binding, human; design: Binding of serum 6 to linear peptides of protein X1 of SARS-CoV Urbani / Binding of serum 37 to linear peptides of protein X1 of SARS-CoV Urbani / Binding of serum 6 to looped/cyclic peptide (PEPSCAN-ELISA) / Binding of serum 37 to looped/cyclic peptide (PEPSCAN-ELISA) / Binding of serum 37 to looped/cyclic peptides of protein X1 of SARS-CoV Urbani / Binding of serum 6 to linear peptides of protein X2 / Binding of serum 37 to linear peptides of protein X2 / Binding of serum 37 to looped/cyclic peptides of protein X2 of SARS-CoV Urbani / Binding of serum 6 to linear peptides of protein M of SARS-CoV Urbani / Binding of serum 37 to linear peptides of protein M of SARS-CoV Urbani / Binding of serum 6 to looped/cyclic peptides of protein M of SARS-CoV Urbani / Binding of serum 37 to looped/cyclic peptides of protein M of SARS-CoV Urbani / Binding of serum 6 to linear peptides of protein X3 of SARS-CoV Urbani / Binding of serum 37 to linear peptides of protein X3 of SARS-CoV Urbani / Binding of serum 37 to looped/cyclic peptides of protein X3 of SARS-CoV Urbani / Binding of serum 6 to linear peptides of protein X4 of SARS-CoV Urbani / Binding of serum 37 to linear peptides of protein X4 of SARS-CoV Urbani / Binding of serum 37 to looped/cyclic peptides of protein X4 of SARS-CoV Urbani / Binding of serum 6 to linear peptides of protein X5 of SARS-CoV Urbani / Binding of serum 37 to linear peptides of protein X5 of SARS-CoV Urbani / Binding of serum 37 to looped/cyclic peptides of protein X5 of SARS-CoV Urbani / Binding of serum 6 to linear peptides of protein N of SARS-CoV Urbani / Binding of serum 37 to linear peptides of protein N of SARS-CoV Urbani / Binding of serum 6 to linear peptide (PEPSCAN-ELISA) / Binding of serum 1a to looped/cyclic peptides of protein N of SARS-CoV Urbani / Binding of serum 1b to looped/cyclic peptides of protein N of SARS-CoV Urbani / Binding of serum 2 to looped/cyclic peptides of protein N of SARS-CoV Urbani / Binding of serum 6 to looped/cyclic peptides of protein N of SARS-CoV Urbani / Binding of serum 37 to looped/cyclic peptides of protein N of SARS-CoV Urbani / Binding of serum 62 to looped/cyclic peptides of protein N of SARS-CoV Urbani / Binding of serum London to looped/cyclic peptides of protein N of SARS-CoV Urbani / Binding of serum SARS-green to looped/cyclic peptides of protein N of SARS-CoV Urbani: unit not given here
# [3] = tested on: rabbit serum obtained by immunizing a rabbit with the SARS-CoV strain Frankfurt 1; format: binding; design: Binding of a rabbit serum to linear peptides / Binding of a rabbit serum to looped peptides / Rabbit serum linear peptides / Rabbit serum looped peptides / Binding of a rabbit serum to linear peptides of protein N of SARS-CoV Urbani (Rabbit serum linear peptides) / Binding of a rabbit serum to looped/cyclic peptides of protein N of SARS-CoV Urbani (Rabbit serum looped peptides): unit not given here
sequence,measurement,setting,value
RCDIKDLPKEITVAT,Binding of Control Serum Blood-Bank to Looped peptides of the protein M of SARS-CoV Urbani,[1],0.6
same,Binding of Control serum Blood-bank to linear peptides of the protein M of SARS-CoV Urbani,[1],0.7
same,Binding of Control serum LUMC to linear peptides of the protein M of SARS-CoV Urbani,[1],0.5
same,Binding of Control serum LUMC to looped peptides of the protein M of SARS-CoV Urbani,[1],0.7
same,Binding of serum 1a to linear peptides of protein M of SARS-CoV Urbani,[2],0.7
same,Binding of serum 1a to looped/cyclic peptides of protein M of SARS-CoV Urbani,[2],0.6
same,Binding of serum 1b to linear peptides of protein M of SARS-CoV Urbani,[2],0.5
same,Binding of serum 1b to looped/cyclic peptides of protein M of SARS-CoV Urbani,[2],0.4
same,Binding of serum 2 to linear peptides of protein M of SARS-CoV Urbani,[2],0.5
same,Binding of serum 2 to looped/cyclic peptides of protein M of SARS-CoV Urbani,[2],0.6
same,Binding of serum 6 to linear peptides of protein M of SARS-CoV Urbani,[2],0.3
same,Binding of serum 6 to looped/cyclic peptides of protein M of SARS-CoV Urbani,[2],0.6
same,Binding of serum 37 to linear peptides of protein M of SARS-CoV Urbani,[2],0.5
same,Binding of serum 37 to looped/cyclic peptides of protein M of SARS-CoV Urbani,[2],0.6
same,Binding of serum 62 to linear peptides of protein M of SARS-CoV Urbani,[2],0.6
same,Binding of serum 62 to looped/cyclic peptides of protein M of SARS-CoV Urbani,[2],0.6
same,Binding of serum London to linear peptides of protein M of SARS-CoV Urbani,[2],0.3
same,Binding of serum London to looped/cyclic peptides of protein M of SARS-CoV Urbani,[2],0.2
same,Binding of serum SARS-green to linear peptides of protein M of SARS-CoV Urbani,[2],0.5
same,Binding of serum SARS-green to looped/cyclic peptides of protein M of SARS-CoV Urbani,[2],0.4
same,Binding of serum SARS-yellow to linear peptides of protein M of SARS-CoV Urbani,[2],0.2
same,Binding of serum SARS-yellow to looped/cyclic peptides of protein M of SARS-CoV Urbani,[2],0.7
same,Rabbit serum linear peptides,[3],0.0
same,Rabbit serum looped peptides,[3],0.3
IYFLQCINACRIIMR,Binding of Control Serum Blood-Bank to Looped peptides,[1],0.6
same,Binding of Control serum Blood-bank to linear peptides,[1],0.7
same,Binding of Control serum LUMC to linear peptides,[1],0.7
same,Binding of Control serum LUMC to looped peptides,[1],0.6
same,Binding of serum 1a to linear peptides of protein X1 of SARS-CoV Urbani,[2],0.7
same,Binding of serum 1a to looped/cyclic peptide (PEPSCAN-ELISA),[2],0.6
same,Binding of serum 1b to linear peptides of protein X1 of SARS-CoV Urbani,[2],0.6
same,Binding of serum 1b to looped/cyclic peptide (PEPSCAN-ELISA),[2],0.4
same,Binding of serum 2 to linear peptides of protein X1 of SARS-CoV Urbani,[2],0.6
same,Binding of serum 2 to looped/cyclic peptide (PEPSCAN-ELISA),[2],0.8
same,Binding of serum 6 to linear peptides of protein X1 of SARS-CoV Urbani,[2],0.5
same,Binding of serum 6 to looped/cyclic peptide (PEPSCAN-ELISA),[2],1.0
same,Binding of serum 37 to linear peptides of protein X1 of SARS-CoV Urbani,[2],0.7
same,Binding of serum 37 to looped/cyclic peptide (PEPSCAN-ELISA),[2],0.6
same,Binding of serum 62 to linear peptides of protein X1 of SARS-CoV Urbani,[2],0.7
same,Binding of serum 62 to looped/cyclic peptide (PEPSCAN-ELISA),[2],0.7
same,Binding of serum London to linear peptides of protein X1 of SARS-CoV Urbani,[2],0.3
same,Binding of serum London to looped/cyclic peptide (PEPSCAN-ELISA),[2],1.6
same,Binding of serum SARS-green to linear peptides of protein X1 of SARS-CoV Urbani,[2],0.2
same,Binding of serum SARS-green to looped/cyclic peptide (PEPSCAN-ELISA),[2],0.2
same,Binding of serum SARS-yellow to linear peptides of protein X1 of SARS-CoV Urbani,[2],0.5
same,Binding of serum SARS-yellow to looped/cyclic peptide (PEPSCAN-ELISA),[2],0.6
same,Binding of a rabbit serum to linear peptides,[3],0.5
same,Binding of a rabbit serum to looped peptides,[3],0.9
LFLIVAALVFLILCF,Binding of Control Serum Blood-Bank to Looped peptides,[1],0.7
same,Binding of Control serum Blood-bank to linear peptides,[1],0.5
same,Binding of Control serum LUMC to linear peptides,[1],0.4
same,Binding of Control serum LUMC to looped peptides,[1],0.4
same,Binding of serum 1a to linear peptides of protein X4 of SARS-CoV Urbani,[2],0.6
same,Binding of serum 1a to looped/cyclic peptides of protein X4 of SARS-CoV Urbani,[2],0.8
same,Binding of serum 1b to linear peptides of protein X4 of SARS-CoV Urbani,[2],0.5
same,Binding of serum 1b to looped/cyclic peptides of protein X4 of SARS-CoV Urbani,[2],0.4
same,Binding of serum 2 to linear peptides of protein X4 of SARS-CoV Urbani,[2],0.3
same,Binding of serum 2 to looped/cyclic peptides of protein X4 of SARS-CoV Urbani,[2],0.7
same,Binding of serum 6 to linear peptides of protein X4 of SARS-CoV Urbani,[2],0.4
same,Binding of serum 6 to looped/cyclic peptides of protein X4 of SARS-CoV Urbani,[2],0.3
same,Binding of serum 37 to linear peptides of protein X4 of SARS-CoV Urbani,[2],0.6
same,Binding of serum 37 to looped/cyclic peptides of protein X4 of SARS-CoV Urbani,[2],0.5
same,Binding of serum 62 to linear peptides of protein X4 of SARS-CoV Urbani,[2],0.6
same,Binding of serum 62 to looped/cyclic peptides of protein X4 of SARS-CoV Urbani,[2],0.5
same,Binding of serum London to linear peptides of protein X4 of SARS-CoV Urbani,[2],0.7
same,Binding of serum London to looped/cyclic peptides of protein X4 of SARS-CoV Urbani,[2],0.2
same,Binding of serum SARS-green to linear peptides of protein X4 of SARS-CoV Urbani,[2],0.6
same,Binding of serum SARS-green to looped/cyclic peptides of protein X4 of SARS-CoV Urbani,[2],0.4
same,Binding of serum SARS-yellow to linear peptides of protein X4 of SARS-CoV Urbani,[2],0.7
same,Binding of serum SARS-yellow to looped/cyclic peptides of protein X4 of SARS-CoV Urbani,[2],0.5
same,Rabbit serum linear peptides,[3],0.3
same,Rabbit serum looped peptides,[3],0.4
CADGTRHTYQLRARS,Binding of Control Serum Blood-Bank to Looped peptides,[1],0.5
same,Binding of Control serum Blood-bank to linear peptides,[1],0.7
same,Binding of Control serum LUMC to linear peptides,[1],0.5
same,Binding of Control serum LUMC to looped peptides,[1],0.6
same,Binding of serum 1a to linear peptides of protein X4 of SARS-CoV Urbani,[2],0.6
same,Binding of serum 1a to looped/cyclic peptides of protein X4 of SARS-CoV Urbani,[2],0.7
same,Binding of serum 1b to linear peptides of protein X4 of SARS-CoV Urbani,[2],0.5
same,Binding of serum 1b to looped/cyclic peptides of protein X4 of SARS-CoV Urbani,[2],0.4
same,Binding of serum 2 to linear peptides of protein X4 of SARS-CoV Urbani,[2],0.5
same,Binding of serum 2 to looped/cyclic peptides of protein X4 of SARS-CoV Urbani,[2],0.8
same,Binding of serum 6 to linear peptides of protein X4 of SARS-CoV Urbani,[2],0.6
same,Binding of serum 6 to looped/cyclic peptides of protein X4 of SARS-CoV Urbani,[2],0.6
same,Binding of serum 37 to linear peptides of protein X4 of SARS-CoV Urbani,[2],0.7
same,Binding of serum 37 to looped/cyclic peptides of protein X4 of SARS-CoV Urbani,[2],0.7
same,Binding of serum 62 to linear peptides of protein X4 of SARS-CoV Urbani,[2],0.7
same,Binding of serum 62 to looped/cyclic peptides of protein X4 of SARS-CoV Urbani,[2],0.6
same,Binding of serum London to linear peptides of protein X4 of SARS-CoV Urbani,[2],0.8
same,Binding of serum London to looped/cyclic peptides of protein X4 of SARS-CoV Urbani,[2],0.3
same,Binding of serum SARS-green to linear peptides of protein X4 of SARS-CoV Urbani,[2],0.6
same,Binding of serum SARS-green to looped/cyclic peptides of protein X4 of SARS-CoV Urbani,[2],0.0
same,Binding of serum SARS-yellow to linear peptides of protein X4 of SARS-CoV Urbani,[2],0.7
same,Binding of serum SARS-yellow to looped/cyclic peptides of protein X4 of SARS-CoV Urbani,[2],0.6
same,Recognition of the peptide by the rabbit serum,[3],recognized
KKVSTNLCTHSFRKK,Binding of Control Serum Blood-Bank to Looped peptides,[1],0.5
same,Binding of Control serum Blood-bank to linear peptides,[1],0.7
same,Binding of Control serum LUMC to linear peptides,[1],0.4
same,Binding of Control serum LUMC to looped peptides,[1],0.8
same,Binding of serum 1a to looped/cyclic peptides of protein X2 of SARS-CoV Urbani,[2],0.5
same,Binding of serum 1b to looped/cyclic peptides of protein X2 of SARS-CoV Urbani,[2],0.3
same,Binding of serum 2 to looped/cyclic peptides of protein X2 of SARS-CoV Urbani,[2],0.7
same,Binding of serum 6 to looped/cyclic peptides of protein X2 of SARS-CoV Urbani,[2],0.5
same,Binding of serum 37 to looped/cyclic peptides of protein X2 of SARS-CoV Urbani,[2],0.5
same,Binding of serum 62 to looped/cyclic peptides of protein X2 of SARS-CoV Urbani,[2],0.6
same,Binding of serum London to looped/cyclic peptides of protein X2 of SARS-CoV Urbani,[2],0.2
same,Binding of serum SARS-green to looped/cyclic peptides of protein X2 of SARS-CoV Urbani,[2],0.3
same,Binding of serum SARS-yellow to looped/cyclic peptides of protein X2 of SARS-CoV Urbani,[2],0.5
same,"Recognition of the peptide by sera of SARS-CoV infected individuals, and form (linear, looped/cyclic) in which it is recognized",[2],recognized in linear form
same,Binding of a rabbit serum to linear peptides,[3],0.3
same,Binding of a rabbit serum to looped peptides,[3],0.1
